From publication PMC8749431 (mBio, 2022)
Read-outs that look alike come from different tables or passages of the source.

Tests used:
[1] = test system: wild-type SARS-CoV-2 (2019-nCoV/USA-WA1/2020 strain); format: cell-based
[2] = target: recombinant SARS-CoV-2 S1-S2 protein (Severe acute respiratory syndrome coronavirus 2, UniProt P0DTC2); format: binding
SARS2-Spp = format: cell-based, SARS-CoV-2
in vitro [3] = conditions: human
[4] = test system: SARS-CoV-2 S protein-mediated cell-cell fusion; format: cell-based; conditions: 30, 10, 3, 1 μM; 48 h
[5] = test system: SARS2-Spp binding to Huh7 cells; format: cell-based, SARS-CoV-2
VSV-Gpp = format: cell-based, vesicular stomatitis virus
in vitro [6] = conditions: African green monkey
SARS-CoV-2-NLuc = experiment: microbe, parasite or virus in culture; format: cell-based; conditions: Severe acute respiratory syndrome coronavirus 2, Vero C1008
icSARS-CoV-2-mNeonGreen = format: cell-based, SARS-CoV-2
in vitro [7] = conditions: human; remark: listed apart in the source
[8] = test system: SARS-CoV-2 S protein-mediated cell-cell fusion; format: cell-based; conditions: 30 μM; 48 h

In the case of `CCC(CC)COC(=O)[C@H](C)N[P@](=O)(OC[C@H]1O[C@@](C#N)(c2ccc3c(N)ncnn23)[C@H](O)[C@@H]1O)Oc1ccccc1` [remdesivir], the “suppression of viral RNA levels” value [1] is reported as “up to 3 log”.

For `O=C(CCCCC1SCC2NC(=O)NC21)NCCOCCOCCN1CCN(C(c2ccc(Cl)cc2)c2ccc(C3(C(F)(F)F)N=N3)cc2)CC1` (centres unmarked) [CCZ-DB], the “binding to recombinant S1-S2 protein by cross-linking” value ([2]; 10 µM probe, UV irradiation, Neutravidin pull-down, anti-S2 blot) was “direct binding”.

For `Cc1cc(-c2nc(CN3CCC(C(=O)NCCCN4C[C@H](C)C[C@H](C)C4)CC3)co2)ccc1F` [Fluoxazolevir, fluoxazolevir], the “inhibition when present at early entry time points” value (SARS2-Spp) was “potent inhibition”, the “inhibition when present during binding” value (SARS2-Spp) was “minimal inhibition” and the CC50 (in vitro [3]) was greater than 100 µM. The “suppression of viral RNA levels” value [1] was “up to 2 log”, the “inhibition of donor-recipient fusion events (SmBit-LgBit)” value (shortened to “inhibition … (SmBit-LgBit)”) [4] was “inhibited” and the “effect on viral binding to cells” value [5] was “little or no effect”. The “inhibition of VSV-Gpp entry” value (VSV-Gpp) was “minimal”, the CC50 (in vitro [6]) was greater than 100 µM and the EC50 (SARS-CoV-2-NLuc) was 1.96 µM. The EC50 (icSARS-CoV-2-mNeonGreen) was “single-digit micromolar range”, the CC50 (in vitro [7]) was 32.7 µM and the “inhibition of fusion (GFP-RFP colocalization)” value (from here on “inhibition of fusion”) [8] was “showed inhibition”.

With `CCN(CC)CCCC(C)Nc1ccnc2cc(Cl)ccc12` (centres unmarked) [Chloroquine, chloroquine] the CC50 (in vitro [3]) was greater than 100 µM, the “inhibition of VSV-Gpp entry” value (VSV-Gpp) was “strong inhibition” and the CC50 (in vitro [6]) was greater than 100 µM. For the same compound, the CC50 (Huh7 cells; human) was 37.5 µM and the CC50 (in vitro [7]) was greater than 30 µM.

For `CN1CCN([C@@H](c2ccccc2)c2ccc(Cl)cc2)CC1` [(S)-CCZ, (S)-chlorcyclizine], the CC50 (in vitro [3]) was greater than 100 µM, the “inhibition … (SmBit-LgBit)” value [4] was “inhibited” and the “inhibition of VSV-Gpp entry” value (VSV-Gpp) was “no inhibition”. It also gave a CC50 (in vitro [6]) of 36.2 µM, a CC50 (Huh7 cells; human) of 41.7 µM and a CC50 (in vitro [7]) greater than 30 µM. The “inhibition of fusion” value [8] was “showed inhibition”.

For Heparan sulfate, the “effect on viral binding to cells” value [5] was “significantly inhibited”.

With `CN(C)C(=O)COC(=O)Cc1ccc(OC(=O)c2ccc(NC(=N)N)cc2)cc1` [Camostat, camostat] the CC50 (in vitro [3]) was greater than 100 µM, the “inhibition … (SmBit-LgBit)” value [4] was “did not suppress” and the CC50 (in vitro [6]) was greater than 100 µM. The CC50 (in vitro [7]) was greater than 100 µM and the “inhibition of fusion” value [8] was “did not decrease”.

In the case of `CCN1CCN(C(c2ccc(Cl)cc2)c2ccc(Cl)cc2)CC1` [Dichlorcyclizine, dichlorcyclizine], the “inhibition when present at early entry time points” value (SARS2-Spp) is reported as “potent inhibition”, the “inhibition when present during binding” value (SARS2-Spp) is reported as “minimal inhibition” and the CC50 (in vitro [3]) is reported as greater than 100 µM. For the same compound, the “suppression of viral RNA levels” value [1] was “up to 2 log”, the “inhibition … (SmBit-LgBit)” value [4] was “potent inhibition” and the “competition of probe cross-linking to the spike protein” value ([2]; 30-fold excess over CCZ-DB) was “could outcompete”. The “effect on viral binding to cells” value [5] was “little or no effect”, the “inhibition of VSV-Gpp entry” value (VSV-Gpp) was “no inhibition” and the CC50 (in vitro [6]) was greater than 100 µM. For the same compound, the EC50 (SARS-CoV-2-NLuc) was 4.99 µM, the EC50 (icSARS-CoV-2-mNeonGreen) was “single-digit micromolar range” and the “inhibition of fusion” value [8] was “strong inhibition”.

For `CCOC(=O)[C@H]1O[C@@H]1C(=O)N[C@@H](CC(C)C)C(=O)NCCC(C)C` [E-64d], the “inhibition when present at early entry time points” value (SARS2-Spp) was “displayed inhibition”, the “inhibition when present at middle entry time point” value (SARS2-Spp) was “displayed inhibition” and the “inhibition when present during binding” value (SARS2-Spp) was “displayed inhibition”. The CC50 (MA104 cells) was greater than 100 µM, the “inhibition … (SmBit-LgBit)” value [4] was “did not suppress” and the “effect on viral binding to cells” value [5] was “little or no effect”. For the same compound, the CC50 (293ACE2 cells) was greater than 100 µM, the CC50 (Huh7 cells) was greater than 100 µM and the “inhibition of fusion” value [8] was “did not decrease”.
